Patent US20010044151A1, “Ligands for modulating the expression of exogenous genes via an ecdysone receptor complex” (priority 1998, published 2001)

Target: T1, ecdysteroid receptor complex in Plodia interpunctella (IAL-PID2) nuclear extract (Plodia interpunctella, UniProt Q6RVD3)
T1 sequence (Q6RVD3 1-541): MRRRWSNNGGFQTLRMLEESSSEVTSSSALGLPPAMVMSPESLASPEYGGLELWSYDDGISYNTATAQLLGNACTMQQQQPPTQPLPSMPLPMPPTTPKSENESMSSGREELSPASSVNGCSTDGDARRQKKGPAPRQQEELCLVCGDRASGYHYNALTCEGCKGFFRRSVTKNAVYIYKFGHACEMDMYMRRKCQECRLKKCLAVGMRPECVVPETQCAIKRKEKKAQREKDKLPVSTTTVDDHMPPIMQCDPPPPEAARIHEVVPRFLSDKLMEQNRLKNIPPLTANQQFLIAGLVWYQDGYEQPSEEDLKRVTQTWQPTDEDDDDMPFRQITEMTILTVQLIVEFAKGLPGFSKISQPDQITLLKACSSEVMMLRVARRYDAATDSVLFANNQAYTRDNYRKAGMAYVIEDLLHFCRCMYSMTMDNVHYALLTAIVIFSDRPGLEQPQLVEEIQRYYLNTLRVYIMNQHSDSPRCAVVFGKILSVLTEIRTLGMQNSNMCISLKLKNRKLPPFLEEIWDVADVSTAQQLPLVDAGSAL
T1 sequence (Q6IVK1 1-415 partner): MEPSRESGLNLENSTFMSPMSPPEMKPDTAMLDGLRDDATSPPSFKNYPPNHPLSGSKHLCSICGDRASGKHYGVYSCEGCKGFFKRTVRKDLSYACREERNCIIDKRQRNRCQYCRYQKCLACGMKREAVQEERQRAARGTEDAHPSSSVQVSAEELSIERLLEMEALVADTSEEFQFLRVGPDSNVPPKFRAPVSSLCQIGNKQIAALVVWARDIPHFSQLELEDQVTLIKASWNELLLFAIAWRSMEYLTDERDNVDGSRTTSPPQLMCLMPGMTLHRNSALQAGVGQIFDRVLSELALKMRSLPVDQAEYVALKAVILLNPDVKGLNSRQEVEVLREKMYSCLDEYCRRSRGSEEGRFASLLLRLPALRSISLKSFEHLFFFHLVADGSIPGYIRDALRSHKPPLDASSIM
Assay: Competitive 3H-ponasterone A binding assay, Plodia nuclear ecdysone receptor extract
Details: 3H-ponasterone A displacement
Procedure: The cell line IAL-PID2, derived from imaginal wing discs of the lepidopteran Plodia interpunctella was obtained from H. Oberlander and maintained as described (Lynn, E. E. and Oberlander, H., (1983), J. Insect Physiology, 29, 591-96). A 300 ml stationary phase culture of P. interpunctella cells was centrifuged at 700×g for 10 mm at room temperature to pellet the cells. The supernatant was aspirated and the cellular pellet resuspended in 35 ml TMT (TM buffer with 0.1% Triton X-100). The suspension was homogenized with twenty up and down strokes of a Dounce homogenizer on ice. Homogenate was incubated on ice for 10 minutes and then centrifuged for 15 min at 900×g. The pellet was resuspenced in 15 ml TM buffer and centrifuged at 2,300×g. This pellet was extracted in TMK buffer (TM buffer with 800 mM KCl) by using a glass rod to crush the pellet until a gelatinous slurry was formed and incubated on ice for 15 minutes. The extract was centrifuged at 100,000×g in a swinging bucket rotor for 60 minutes. The supernatant, which constituted the nuclear extract, was desalted on a 10 DG desalting column (Bio-Rad, 732-2010) equilibrated with T-buffer. The total protein concentration in the nuclear extract was adjusted to 5 mg per ml with T-buffer containing 1 mM DTT.
^3H ponasterone A, a potent phytoecdysteroid, (66,000 dpm; specific activity 170 Ci/mmole; NEN Life Science Products, Boston, Mass.) was mixed with 100 μl Kc cytosolic or Plodia nuclear ecdysone receptor extracts in […] glass test tubes in the absence or presence of 10 μM unlabelled 20-hydroxyecdysone (20E) to obtain an estimate of total or non-specific respectively, binding of tritiated ponasterone A. The tubes were vortexed and incubated overnight at 4° C. for Kc cytosolic extracts or 1.5 hours for Plodia nuclear extracts for binding reactions to reach equilibrium. At the end of equilibrium binding times, the bound tritiated ponasterone A was separated from the unbound by addition of ice-cold 600 μl or 300 μl dextran-coated charcoal solution (500 mg of Sigma HCL-washed activated charcoal, 50 mg Pharmacia Dextran T70, 50 ml T-buffer) to Kc or Plodia extracts, respectively. The tubes were vortexed briefly and centrifuged at 7,000×g to pellet the charcoal. The supernatant, 600 μl or 300 μl for Kc or Plodia extract reactions, respectively, containing tritiated ponasterone A bound to proteins, was aspirated into liquid scintillation vials containing 5 ml scintillation cocktail (ReadySafe®, Beckmann) each The mixture was vortexed and the amount of total or non-specifically bound radioactivity measured in a Beckmann LS500 liquid scinitllation counter with a 60% counting efficiency for tritium.
(§1) The concentrations of competitors that inhibited 50% of tritiated ponasterone A binding (IC50) was determined by incubating Kc or Plodia nuclear extracts or extracts of bacteria producing CfEcR(CDEF)-GST and CfUSP-GST fusions proteins with ^3H-ponasterone A (66,000 dpm per reaction) in the presence of a range of concentrations (0.1 nM to 10 μM) of test compounds. In the case of binding reactions using bacterial fusion proteins, 20 or one μl extract of bacteria producing CfEcR(CDEF)-GST or CfUSP-GST fusion proteins, respectively, were included per binding reaction. The assay conditions and determination of total and non-specific binding was as described above. The volume of competitor in solvent, like that for 20E or solvent alone, was kept at 1% of total reaction volume by using a 100 fold concentrated stock solution (i.e. a 100 fold dilution of stock solutions). The remainder of the assay was as described above. Each reaction was carried out in duplicate per concentration per test compound. Specific binding of ^3H-ponasterone A was determined by subtracting non-specific binding (that obtained in the presence of 10 μM 20E) from total (no competitor) or competed radioactivity bound. […]

SMILES	Plodia log(1/IC50)
CCOc1cccc(C(=O)NN(C(=O)c2cc(C)cc(C)c2)C(C)(C)C)c1C [Ligand 6]	8.82
CCc1c(C(=O)NN(C(=O)c2cc(C)cc(C)c2)C(C)(C)C)ccc2c1OCCO2 [Ligand 7]	8.78
COc1cccc(C(=O)NN(C(=O)c2cc(Cl)cc(Cl)c2)C(C)(C)C)c1C [Ligand 9]	9.00
CCc1c(OC)cccc1C(=O)NN(C(=O)c1cc(C)cc(Cl)c1)C(C)(C)C [Ligand 10]	8.80
COc1cccc(C(=O)NN(C(=O)c2cc(C)cc(C)c2)C(C)(C)C)c1C(C)C [Ligand 11]	8.93

Target: CfEcR(CDEF)-GST and CfUSP-GST fusion proteins
Assay: Competitive 3H-ponasterone A binding assay, bacterial GST fusion proteins
Parameters: species or system Choristoneura fumiferana
Details: bacterial CfEcR(CDEF)-GST/CfUSP-GST extracts, 3H-ponasterone A displacement
Description: Bacterial glutathion-S-transferase (GST) fusion proteins of the spruce budworm (Choristoneura fumiferana) EcR (CfEcR), containing CDEF domains only, and ultraspiracle protein (CfUSP) were also used in radioligand displacement assays. cDNA encoding the CDEF domains of CfEcR were constructed following PCR amplification using primers that contain BamH1 and EcoRI sites (Perera S C, M Sundaram, Krell P J, Retnakaran A, Dhadialla T S, S R Palli, 1999 Arch. Insect Biochem. Physiol. 41 In Press). The PCR produce was digested with BamHI and EcoRI and cloned into pGEX-3X vector obtained from Pharmacia Biotech. CfUSP coding region was amplified using primers that contain BamH1 and EcoRI sites and cloned into to pGEX-2T vector obtained from Pharmacia Biotech. E. coli transformed with each of the two vectors were grown and induced to produce the fusion proteins as detailed in the Pharmacia Biotech GST-technical bulletin.
as §1, with “compound.” for “compound. Specific binding of ^3H-ponasterone A was determined by subtracting non-specific binding (that obtained in the presence of 10 μM 20E) from total (no competitor) or competed radioactivity bound.”

SMILES	Bacterial CfECR log(1/IC50)
Cc1cc(C)cc(C(=O)N(NC(=O)c2cccc(O)c2C)C(C)(C)C)c1 [Ligand 14]	8.61
Cc1cc(CO)cc(C(=O)N(NC(=O)c2cccc(O)c2C)C(C)(C)C)c1 [Ligand 15]	8.49
